# Test results from PMC6556873, “Rapid Covalent-Probe Discovery by Electrophile-Fragment Screening” (Journal of the American Chemical Society, 2019).
# Read-outs that look alike come from different tables or passages of the source.
# How the values were obtained:
# OTUB2 (OTUB2A) = target: T1, OTUB2 (OTUB2A) (Homo sapiens, UniProt Q96DC9); parameters: Intact protein LC/MS covalent labelling, fragments in pools of five, 200 uM each, 4 °C; conditions: 24 h, 4 °C, pool of five; 200 µM; covalent
# T1 construct: full length residues 1-234, E. coli BL21(DE3)-R3, His tag removed by TEV, construct 27312 Da
# T1 sequence (Q96DC9 1-234): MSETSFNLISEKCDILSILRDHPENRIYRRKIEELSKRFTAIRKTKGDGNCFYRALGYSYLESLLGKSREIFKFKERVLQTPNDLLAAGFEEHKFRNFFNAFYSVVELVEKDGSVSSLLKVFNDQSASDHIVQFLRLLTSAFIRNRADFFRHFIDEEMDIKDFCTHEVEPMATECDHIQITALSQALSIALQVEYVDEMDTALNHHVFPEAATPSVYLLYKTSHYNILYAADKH
# Protocol: (§1) Incubations were performed at 200 μM for each compound and 2 μM of protein (10 μM for BSA) for 24 h at 4 °C with moderate shaking. Incubation buffers varied among proteins (PBS pH 7.4 for QSOX1 and BSA; 10 mM HEPES pH 7.5, 0.3 M NaCl, 0.5 mM TCEP for PCAF, UPS8, and NUDT7; […]; 10 mM Na2HPO4 pH 7.5 100 mM NaCl 5 mM β-mercaptoethanol for NV3CP; 20 mM Na phosphate pH 7.5 for NNMT; […]. The reaction was stopped by quenching with formic acid, 0.4% final concentration. Each protein was incubated with the electrophilic library in pools of five compounds per well. The pool’s composition maximized the difference in mass between fragments in the same well. Incubations were performed with each fragment at 200 μM, for 24 h at 4 °C, to allow the screening of proteins that are not stable for long time periods at higher temperatures. Following incubation, we used intact protein [compound left out] chromatography/mass spectrometry (LC/MS) to identify the fragments and quantify their labeling (Figure 3A). […] There was good agreement between the percent of labeling of NUDT7 by 100 random individual compounds and that obtained in pools of five (R^2=0.78; Figure S6 and Data set 2 in the Supporting Information).
# BSA = target: T2, BSA (Bos taurus, UniProt P02769); parameters: Intact protein LC/MS covalent labelling, fragments in pools of five, 200 uM each, 4 °C; conditions: 24 h, 4 °C, pool of five; 200 µM; covalent
# T2 construct: gene ALB
# Protocol: as §1
# NUDT7 = target: T3, NUDT7 (Homo sapiens, UniProt P0C024); parameters: Intact protein LC/MS covalent labelling, fragments in pools of five, 200 uM each, 4 °C; conditions: 24 h, 4 °C, pool of five; 200 µM; covalent
# T3 construct: residues 14-235, E. coli, pNIC28-Bsa4, N-terminal His6 tag removed by TEV, construct 26672 Da
# Protocol: as §1
# PCAF = target: T4, PCAF (Homo sapiens, UniProt Q92831); parameters: Intact protein LC/MS covalent labelling, fragments in pools of five, 200 uM each, 4 °C; conditions: 24 h, 4 °C, pool of five; 200 µM; covalent
# T4 construct: gene KAT2B
# Protocol: as §1
# in vitro [1] = assay: in vitro; parameters: species or system CCD841, HEK293; conditions: human, hb2 cells, read-out: HB-2 Cells Viability (%)
# in vitro [2] = assay: in vitro; parameters: species or system HB2, CCD841; conditions: human, hek293 cells
# in vitro [3] = assay: in vitro; parameters: species or system HB2, HEK293; conditions: human, ccd841 cells
# T2 sequence (P02769 whole entry, the tested form may be a part): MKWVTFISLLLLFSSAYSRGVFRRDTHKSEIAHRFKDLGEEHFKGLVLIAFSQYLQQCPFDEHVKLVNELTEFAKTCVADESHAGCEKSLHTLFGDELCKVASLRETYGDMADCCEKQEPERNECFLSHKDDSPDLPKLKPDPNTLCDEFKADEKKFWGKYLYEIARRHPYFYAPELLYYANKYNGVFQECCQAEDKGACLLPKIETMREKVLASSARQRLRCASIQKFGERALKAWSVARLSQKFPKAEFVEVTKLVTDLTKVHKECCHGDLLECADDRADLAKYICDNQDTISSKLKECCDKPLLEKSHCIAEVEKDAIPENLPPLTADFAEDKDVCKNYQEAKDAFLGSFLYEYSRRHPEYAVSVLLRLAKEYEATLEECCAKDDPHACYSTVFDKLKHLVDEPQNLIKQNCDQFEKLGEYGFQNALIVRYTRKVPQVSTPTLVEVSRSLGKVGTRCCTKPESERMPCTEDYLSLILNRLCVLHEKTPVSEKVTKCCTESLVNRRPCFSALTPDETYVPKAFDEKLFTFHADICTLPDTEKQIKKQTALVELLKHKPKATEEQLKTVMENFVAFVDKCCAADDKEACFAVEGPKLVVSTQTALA
# T4 sequence (Q92831 whole entry, the tested form may be a part): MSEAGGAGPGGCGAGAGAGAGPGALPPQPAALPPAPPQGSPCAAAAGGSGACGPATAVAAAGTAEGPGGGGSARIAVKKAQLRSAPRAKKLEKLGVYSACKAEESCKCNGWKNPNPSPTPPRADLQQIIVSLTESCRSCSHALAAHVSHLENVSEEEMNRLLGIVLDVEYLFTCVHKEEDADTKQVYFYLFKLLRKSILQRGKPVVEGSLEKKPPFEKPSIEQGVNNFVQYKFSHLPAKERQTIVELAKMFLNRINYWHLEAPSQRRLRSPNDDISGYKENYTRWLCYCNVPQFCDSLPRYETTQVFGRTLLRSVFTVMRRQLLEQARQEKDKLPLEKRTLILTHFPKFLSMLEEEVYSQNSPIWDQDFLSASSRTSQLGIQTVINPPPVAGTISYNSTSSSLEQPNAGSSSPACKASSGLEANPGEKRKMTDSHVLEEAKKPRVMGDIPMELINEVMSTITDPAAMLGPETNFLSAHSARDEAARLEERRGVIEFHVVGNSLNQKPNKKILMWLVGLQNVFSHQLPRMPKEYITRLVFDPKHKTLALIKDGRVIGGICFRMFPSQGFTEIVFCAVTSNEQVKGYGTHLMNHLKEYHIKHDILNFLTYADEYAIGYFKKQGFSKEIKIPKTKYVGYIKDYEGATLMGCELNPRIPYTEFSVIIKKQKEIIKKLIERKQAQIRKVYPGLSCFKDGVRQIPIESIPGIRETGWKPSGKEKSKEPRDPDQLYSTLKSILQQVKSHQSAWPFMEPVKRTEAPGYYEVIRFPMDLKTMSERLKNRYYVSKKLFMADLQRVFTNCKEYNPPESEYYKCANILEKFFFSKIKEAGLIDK
# T3 sequence (P0C024 14-235): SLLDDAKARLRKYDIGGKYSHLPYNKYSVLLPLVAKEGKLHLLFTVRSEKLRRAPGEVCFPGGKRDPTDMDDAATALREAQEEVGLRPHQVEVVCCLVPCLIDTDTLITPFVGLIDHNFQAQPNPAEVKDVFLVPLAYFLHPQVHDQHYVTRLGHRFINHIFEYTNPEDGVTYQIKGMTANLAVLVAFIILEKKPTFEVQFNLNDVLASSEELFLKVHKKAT
Structure (SMILES),OTUB2 (OTUB2 (OTUB2A)),BSA (BSA),NUDT7 (NUDT7),PCAF (PCAF),"viability at 48 h, 10 µM (in vitro [1]) [%]","viability at 48 h, 10 µM (in vitro [2]) [%]","viability at 48 h, 10 µM (in vitro [3]) [%]"
C=CC(=O)N(C)CC(=O)N1c2ccccc2NC(=O)CC1C (centres unmarked) [PCM-0102729],0,0,0,0,104,107,107
Cc1nc(NC(=O)CCl)sc1-c1ccccc1 [PCM-0102788],0.09,0,0.36,0,35.7,26.7,23.8
CN(Cc1ccc(Cl)c(Cl)c1)C(=O)CCl [PCM-0102349],0,0,0.59,0,1.7,1.4,3.9
Cc1nc(-c2cccc(NC(=O)CCl)c2)cs1 [PCM-0102262],0.63,0,0,0,5.4,1.7,29.7
N#CSc1ccc(NC(=O)CCl)c(Br)c1 [PCM-0102466],0,0,0,0,23.2,48.4,29.3
C=CC(=O)N1CCCc2ccccc21 [PCM-0102549],0,0,0,0,111,111,109
C=CC(=O)N1CCN(C)CC1 [PCM-0102634],0,0,0,0,99.6,131,114
O=C(CCl)NC(=O)OCc1ccccc1 [PCM-0102153],0.79,0,0,0,96,82.8,109
O=C(CCl)NC(=O)Nc1ccccc1F [PCM-0102376],0,0,0,0,63.5,67.8,80.5
O=C(CCl)Nc1c(Cl)cc(Cl)cc1C(=O)O [PCM-0102576],0,0,0,0,100,100,105
C=CC(=O)NC1(CO)Cc2ccccc2C1 [PCM-0102446],0,0,0.38,0,101,88.4,103
O=C(CCl)Nc1ccccc1[N+](=O)[O-] [PCM-0102232],0.2,0,0.24,0,75.4,73.9,81.8
CC1CCc2ccccc2N1C(=O)CCl (centres unmarked) [PCM-0102822],0,0,0,0,92.2,54.7,39.6
Cc1ccc([N+](=O)[O-])cc1NC(=O)CCl [PCM-0102098],0.33,0,0.12,0,1.1,1.2,2
O=C(CCl)N1CCN(C(=O)Nc2ccccc2)CC1 [PCM-0102257],0,0,0.07,0,34.8,8.5,56.6
O=C(CCl)Nc1ccc(-c2nnc3n2CCCCC3)cc1 [PCM-0102101],0.28,0,0,0,36.7,17.5,61.9
Cc1ccc(NC(=O)NC(=O)CCl)c(C)c1 [PCM-0102171],0.1,0,0.2,0,78.8,74.7,53.9
C=CC(=O)N1CCC(Cc2ccccn2)CC1 [PCM-0102473],0,–,0,0,100,98.6,112
O=C(CCl)Nc1nc2ccc(Br)cc2s1 [PCM-0102126],0.12,–,1,0,83.6,92.5,92.7
Cc1c(C#N)sc(NC(=O)CCl)c1C#N [PCM-0102371],0,–,0,0,94.3,87.5,102

# Now from value to molecule, other results behind:
OTUB2 (OTUB2 (OTUB2A)),BSA (BSA),NUDT7 (NUDT7),PCAF (PCAF),Structure (SMILES),"viability at 48 h, 10 µM (in vitro [1]) [%]","viability at 48 h, 10 µM (in vitro [2]) [%]","viability at 48 h, 10 µM (in vitro [3]) [%]"
0,0,0,0,C=CC(=O)Nc1cccc(C#N)c1 [PCM-0102956],104,74.5,102
0,0,0.46,0,Cc1nc(-c2ccc3c(c2)CCN3C(=O)CCl)cs1 [PCM-0102901],2.3,1.2,22.6
0,0,0,0,CN(C)C(=O)c1ccc(NC(=O)CCl)cc1 [PCM-0102877],67.6,30.5,61.7
0,0.11,0,0,C=CC(=O)N1CCCC(c2ncc3n2CCCC3)C1 (centres unmarked) [PCM-0103042],95.6,97.1,108
0,0,0.34,0,O=C(CCl)N(c1ccc(F)cc1)C1C=CS(=O)(=O)C1 (centres unmarked) [PCM-0102868],27.9,6.2,33.4
0.14,0,0.22,0,O=C(CCl)Nc1ccc(Cl)cc1Cl [PCM-0102914],52.5,38.3,82.7
0,0,0,0,C=CC(=O)NCc1ccc(F)cc1 [PCM-0102839],105,87.3,111
0,0,0.09,0,CC1CCc2c(sc(NC(=O)CCl)c2C(N)=O)C1 (centres unmarked) [PCM-0103029],21,18.6,63.2
0.13,0,0,0,O=C(CCl)N1CCN(C(=O)C2COc3ccccc3O2)CC1 (centres unmarked) [PCM-0102996],19.8,5.8,56.4
0,–,1,0,O=C(Nc1ccccc1)NN(C(=O)CCl)c1ccccc1 [PCM-0102957],3.7,0.8,1.1
